Measured values reported in US20260015574A1, “METHODS FOR SHORTENING LAG PHASE DURATION IN MICROORGANISMS” (YEDA RESEARCH AND DEVELOPMENT CO. LTD., priority 2022, published 2026).

What was measured:
Various marine bacteria = assay: Lag phase shortening in various marine bacteria; type: cell-based; details: minute amounts of compound
Procedure: The bacterial strain Phaeobacter inhibens DSM 17395 was purchased from the German collection of microorganisms and cell cultures (DSMZ, Braunschweig, Germany) and stored at −80° C. with 20% glycerol. Routine cultivation of P. inhibens was conducted at 30° C. in artificial seawater medium (ASW) based on Goyet and Poisson (1989). The ASW medium contained mineral salts (NaCl, 409.41 mM; Na2SO4, 28.22 mM; KCl, 9.08 mM; KBr, 0.82 mM; NaF, 0.07 mM; Na2CO3, 0.20 mM; NaHCO3, 2 mM; MgCl2, 50.66 mM; SrCl2, 0.09 mM), L1 vitamins (thiamine HCl, 100 μg/L; biotin, 0.5 μg/L; vitamin B12, […]), L1 trace elements (Na2EDTA·2H2O, 4.36 mg/L; FeCl3·6H2O, 3.15 mg/L; MnCl2·4H2O, 178.1 μg/L; ZnSO4·7H2O, 23.0 μg/L; CoCl2·6H2O, 11.9 μg/L; CuSO4·5H2O, 2.5 μg/L; Na2MoO4·2H2O, 19.9 μg/L; H2SeO3, 1.29 μg/L; NiSO4·6H2O, 2.63 μg/L; Na3 VO4, 1.84 μg/L; K2CrO4, 1.94 μg/L), and L1 nutrients (NaNO3, 882 μM; NaH2PO4, 36.22 μM). ASW was adjusted to pH 8 using HCl. […] A 96-well Tecan Infinite M Plex plate reader was used for high-resolution monitoring of bacterial growth dynamics at 30° C. […] The growth of bacteria in co-culture with algae was monitored by counting colony forming units (CFU) on ½ YTSS agar plates. The growth of algae was monitored with a CellStream flow cytometer (Merck, Darmstadt, Germany). […]

[1] = system: methyl group metabolism pathway genes of P. inhibens; assay: Lag phase transcriptome (dual RNA-sequencing) of DMSP-treated bacteria; type: cell-based, Phaeobacter inhibens; details: 50 μM DMSP, within the first 15 min and 40 min of the lag phase, vs untreated
Procedure: The bacterium P. inhibens DSM 17395 was co-cultivated with the alga Emiliania huxleyi CCMP3266 (purchased from Bigelow Laboratory for Ocean Sciences, East Boothbay, ME) to investigate the metabolic response of the bacterium in the presence of algae, compared to bacteria grown as pure culture with 2 mM glucose. The analysis was conducted using a dual RNA-Sequencing method adapted from Avraham et al. 2016. The adapted method was previously described by Sperfeld et al., 2021. […] The resulting gene expression data, together with data from public databases (BioCyc and KEGG), were used to reconstruct the methyl group metabolism in P. inhibens DSM 17395 (FIG. 1C). The same dual RNA-sequencing method was used to identify genes that are differentially expressed during the lag phase of P. inhibens pure cultures treated with 50 μM DMSP, compared to control cultures without added DMSP (FIGS. 10A, and 11A-11B).
To further elucidate the fate of methyl groups, the inventors analyzed the transcriptome of DMSP-treated P. inhibens bacteria during the lag phase, and compared it to untreated control cultures. […] To further establish that DMSP methyl groups are assimilated via the methionine cycle, the inventors measured the methionine synthesis activity in protein crude extracts of stationary bacterial cells, using a biochemical assay followed by LC/MS analysis. […]

Compound: C[S+](C)CCC(=O)[O-] [DMSP, dimethylsulfoniopropionate]
- lag phase shortening (Various marine bacteria): marked lag phase shortening
- expression of the methyl group metabolism pathway [1]: upregulated
